# In PubChem BioAssay AID1959 (Broad Institute, 2009):
# Active and inactive are the calls of the source.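 Rule for the calls: active = growth-inhibition EC50 no more than tenfold above the top tested dose; inconclusive = flat fit between 30% and 70% inhibition, or unreliable fit; inactive = EC50 more than tenfold above the top tested dose.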
# Test system: E. coli NEB5alpha growth, BacTiter-Glo luminescence, 4 h
# Assay: antibacterial activity against E. coli NEB5alpha – luminescence, counter-screen for MEX-5/POS-1 RNA-binding inhibitor project, dose response (AID 1959);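 note: pUC19-transformed ampicillin-resistant cells grown in LB with ampicillin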
row,SMILES,EC50
1,Oc1c(Cl)cc(Cl)c(Cl)c1Cc1c(O)c(Cl)cc(Cl)c1Cl,> 11 µM (inactive)
2,O=C1NC(=Nc2ccccc2Cl)S/C1=C\c1cc([N+](=O)[O-])ccc1O,> 11 µM (inactive)
3,Cc1ccc(N2C(=O)NC(=O)/C(=C/c3cnn(-c4ccc(C)cc4)c3)C2=O)cc1,> 11 µM (inactive)
4,CN(C)S(=O)(=O)c1cccc(NC(=S)N/N=C/c2ccc(O)c(O)c2O)c1,> 11 µM (inactive)
5,O=C(c1coc(=O)c(Br)c1)N1CCCc2ccccc21,> 11 µM (inactive)
6,CCOCCCn1c(=NC(=O)c2cccs2)c(C#N)cc2c(=O)n3cccc(C)c3nc21,> 11 µM (inactive)
7,COc1ccc(N2C(=O)NC(=O)/C(=C/c3ccc4c(c3)Cc3ccccc3-4)C2=O)cc1,> 11 µM (inactive)
8,O=S(=O)(Nc1cc(Sc2cccc3cccnc23)c(O)c2ccccc12)c1ccc(F)cc1,> 11 µM (inactive)
9,NS(=O)(=O)c1ccc(-c2ccc(/C=C3\NC(=S)NC3=O)o2)cc1,> 11 µM (inactive)
10,Cc1ccc(N2C(=O)NC(=O)/C(=C\c3cc(C)n(-c4cc(C(=O)O)cc(C(=O)O)c4)c3C)C2=O)cc1,> 11 µM (inactive)
11,CCc1cc(C(=O)Nc2ccc(OC)nc2)sc1C,> 11 µM (inactive)
12,CC1(OC(=O)CCc2ccccc2)C(=O)C=C2C=C(c3ccsc3)OC=C2C1=O (stereo not drawn),> 11 µM (inactive)
13,Cc1ccc(NC(=O)Cn2c(=O)c(C)nc3ccccc32)cc1,> 11 µM (inactive)
14,O=C(O)CCCN1C(=O)/C(=C/c2ccc(-c3nc4ccccc4s3)o2)SC1=S,> 11 µM (inactive)
15,CC1=CC(=C2N=C(c3ccccc3)OC2=O)C=C(C)O1,> 11 µM (inactive)
16,Cc1[nH][nH]c(=O)c1C(c1ccc(-c2cccc(C(=O)O)c2)o1)c1c(C)[nH][nH]c1=O,> 11 µM (inactive)
17,Cc1cccc(-n2c(C)cc(C=C3C(=O)c4ccccc4C3=O)c2C)c1,> 11 µM (inactive)
18,O=C(O)CCC(=O)NCc1ccc2[nH]c3c(c2c1)CCCC3,> 11 µM (inactive)
19,CCCCC1(C)OC(=O)C(=Cc2ccc(N(CC)CC)cc2)C(=O)O1 (stereo not drawn),> 11 µM (inactive)
20,O=C1c2ccccc2C(=O)c2[nH]cnc21,> 11 µM (inactive)
21,COC(=O)CCC(=O)OC1(C)C(=O)C2=CN(CCc3ccccn3)C(c3ccc(OC)cc3)=CC2=C(Br)C1=O (stereo not drawn),> 11 µM (inactive)
22,Cc1cc(C(=O)O)ccc1-c1ccc(/C=C2\NC(=O)N(Cc3ccc(F)cc3)C2=O)o1,> 11 µM (inactive)
23,CN(C)c1cccc2c1c(NS(=O)(=O)c1cn(C)cn1)nn2C,> 11 µM (inactive)
24,COc1ccc(N=Cc2c(O)n(-c3cccc(C)n3)c(=O)c3ccccc23)c(OC)c1,> 11 µM (inactive)

row,SMILES,EC50
1,COc1cccc(C2C3CN(C)CC=C3C(C#N)=C(N)C2(C#N)C#N)c1OC (stereo not drawn),> 11 µM (inactive)
2,CCCCNC(=S)NNC(=O)c1cc(C)on1,> 11 µM (inactive)
3,C[C@@H]1O[C@@H](Oc2c(-c3cc(O)c(O)c(O)c3)oc3cc(O)cc(O)c3c2=O)[C@H](O)[C@H](O)[C@H]1O,> 11 µM (inactive)
4,Cc1ccc(/C=C2\C(=O)NC(=O)N(CC3CCCO3)C2=O)s1 (stereo not drawn),> 11 µM (inactive)
5,Cc1nc(-c2ccc(O)c(O)c2)cs1,> 11 µM (inactive)
6,O=C(NNC(=S)NC(=O)c1ccccc1[N+](=O)[O-])c1ccccc1O,> 11 µM (inactive)
7,CCN(CC)C(=O)c1ccc2c(c1)C1C(Cl)C(Sc3ccccc3[N+](=O)[O-])CC1C(C(=O)O)N2 (stereo not drawn),> 11 µM (inactive)
8,C/C(CCc1oc2ccc(Cl)cc2c1-c1ccc(C)o1)=N\O,> 11 µM (inactive)
9,COc1cc([C@H](Cc2ccccc2)NC(C)=O)oc(=O)c1,> 11 µM (inactive)
10,CC1=C[C@@H]2c3cccc4[nH]cc(c34)C[C@H]2N(C)C1,> 11 µM (inactive)
11,O=C1N=c2ccc(Br)cc2=C1c1sc(=O)[nH]c1O,> 11 µM (inactive)
12,CC(=C\c1ccco1)/C=C1/SC(=S)N(CC(=O)O)C1=O,> 11 µM (inactive)
13,COc1ccc2c(c1)c1nc3ccccc3nc1n2CCn1c(=O)oc2ccccc21,> 11 µM (inactive)
14,CCOC(=O)C1Nc2ccc(Br)cc2C2C=CCC12 (stereo not drawn),> 11 µM (inactive)
15,Cc1sc(-c2ccccn2)nc1OC(=O)c1cccc(Cl)c1Cl,> 11 µM (inactive)
16,Cc1ccc2[nH]c(O)c(N=Nc3ccccc3C)c2c1,> 11 µM (inactive)
17,Cc1ccc(C(=O)C2=C(O)C(=O)N(Cc3ccco3)C2c2ccc(N(C)C)cc2)o1 (stereo not drawn),> 11 µM (inactive)
18,CC(=NCCN1CCCCC1)c1c(O)n(-c2ccc(Cl)cc2)c(=O)[nH]c1=O,> 11 µM (inactive)
19,CN1CCc2cccc3c2C1Cc1ccc(O)c(O)c1-3 (stereo not drawn),> 11 µM (inactive)
20,Cc1cc(C(=O)N/N=C/c2ccc(-c3cccc(Cl)c3Cl)o2)n[nH]1,> 11 µM (inactive)
21,N=c1c(C(=O)NCc2ccc(F)cc2)cc2c(=O)n3ccccc3nc2n1Cc1cccnc1,> 11 µM (inactive)
22,COc1ccc(S(=O)(=O)Nc2ccc(O)c(Sc3ncn[nH]3)c2)cc1,> 11 µM (inactive)
23,CN(C)c1ccnc(Oc2ccc(Cl)cc2)c1C#N,> 11 µM (inactive)
24,Cc1ccccc1OCC(=O)Nc1ccc2c(c1)C(=O)c1ccccc1C2=O,> 11 µM (inactive)

row,SMILES,EC50
1,COc1cc(/C=C2/C(=O)ON=C2C)ccc1OCc1ccccc1F,> 11 µM (inactive)
2,CC(C)(C)C(=O)c1sc2nc(-c3cccs3)cc(C(F)(F)F)c2c1N,> 11 µM (inactive)
3,O=C(CCSc1nc2ccccc2s1)N/N=C/c1c(O)ccc2ccccc12,> 11 µM (inactive)
4,O=C(NNC(=O)c1ccccc1O)c1cccc(Br)c1,> 11 µM (inactive)
5,O=C1Nc2cc(Cl)cnc2N2CCCC12 (stereo not drawn),> 11 µM (inactive)
6,CCOc1ccccc1NC(=O)Nc1ccc(OC)nc1,> 11 µM (inactive)
7,COc1ccc(NC(=O)CN2CCC(NC(=O)C3CCCCC3)CC2)c([N+](=O)[O-])c1,> 11 µM (inactive)
8,O=C(NNC(=O)c1cc(Cl)ccc1[N+](=O)[O-])c1csc(N2CCOCC2)n1,> 11 µM (inactive)
9,COC(=O)c1ccc(C)c(-n2c(C)cc(C=O)c2C)c1,> 11 µM (inactive)
10,CCOC(=O)c1c(-c2ccccc2)csc1NC(=O)/C(C#N)=C/c1ccc(OC)c(OC)c1,> 11 µM (inactive)
11,O=C1OCc2cc(-n3cccc3)ccc21,> 11 µM (inactive)
12,CCOCCCn1c(=NC(=O)c2cccs2)c(C#N)cc2c(=O)n3ccccc3nc21,> 11 µM (inactive)
13,Cc1nc(S/C(=C/c2ccc(-c3ccc(Cl)cc3)o2)C(=O)O)n[nH]1,> 11 µM (inactive)
14,COc1ccc2nc3cc(Cl)ccc3c(Nc3cc(CN4CCCC4)c(O)c(CN4CCCC4)c3)c2n1,> 11 µM (inactive)
15,CC(C)(C)OC(=O)N1CC=C2C(C#N)=C(N)C(C#N)(C#N)[C@H](c3cccnc3)[C@H]2C1,> 11 µM (inactive)
16,Cc1cc(N=Cc2c(O)n(-c3ccc4c(c3)OCO4)c(=O)c3ccccc23)ccn1,> 11 µM (inactive)
17,Cc1cccc(N(C)S(=O)(=O)c2nnc(NC(=O)c3ccco3)s2)c1,> 11 µM (inactive)
18,CN(C)CCCN=Cc1c(O)n(CCc2ccc(F)cc2)c(=O)[nH]c1=O,> 11 µM (inactive)
19,CCN(CC)c1ccc(N=Cc2c(O)n(Cc3ccccc3)c(=O)[nH]c2=O)cc1,> 11 µM (inactive)
20,CC(C)(C)OC(=O)NCCCCC1=CC2=CC(=O)C(C)(OC(=O)c3cnc4ccccc4n3)C(=O)C2=CO1 (stereo not drawn),> 11 µM (inactive)
21,O=C(O)c1cccc(-n2cccc2/C=C2/NC(=O)N(Cc3ccccc3F)C2=O)c1,> 11 µM (inactive)
22,COc1ccc(OC)c(C2C(C(=O)c3ccco3)=C(O)C(=O)N2CCN2CCOCC2)c1 (stereo not drawn),> 11 µM (inactive)
23,CC(=O)Oc1cc2cccc(OC(C)=O)c(=O)c2c(OC(C)=O)c1OC(C)=O,> 11 µM (inactive)
24,[O-]/C(=C(\C(=S)NCc1ccco1)[n+]1ccccc1)c1ccccc1Br,> 11 µM (inactive)

row,SMILES,EC50
1,Cc1nc2ccccc2c(=O)n1/N=C/c1ccc(O)c(O)c1O,> 11 µM (inactive)
2,Cc1ccc(/C=N/Nc2ncnc3nc[nH]c23)cc1,> 11 µM (inactive)
3,CC1=CC(C)(C)N2C(=O)C3(C(C#N)=C(N)OC4=C3C(=O)CC(C)(C)C4)c3cc(C)cc1c32 (stereo not drawn),> 11 µM (inactive)
4,COc1cc(-c2cc(=O)c3c(O)c(OC)c(OC)c(O)c3o2)ccc1O,> 11 µM (inactive)
5,N#Cc1cc(NC2CCCC2)c([N+](=O)[O-])cc1C#N,> 11 µM (inactive)
6,COC(=O)CCCC1=CC2=CC(=O)C(C)(OC(=O)c3cnc4ccccc4n3)C(=O)C2=CO1 (stereo not drawn),> 11 µM (inactive)
7,N=c1c(C(=O)NC2CCCCC2)cc2c(=O)n3ccccc3nc2n1Cc1ccc(F)cc1,> 11 µM (inactive)
8,O=C(C1=NN(c2ccccc2)C2C(=O)N(c3ccccc3Cl)C(=O)C12)c1ccccc1 (stereo not drawn),> 11 µM (inactive)
9,Cc1noc(/C=C/N(C)C)c1S(=O)(=O)N1CCC(C(=O)O)CC1,> 11 µM (inactive)
10,COc1ccc(C2C=C(c3ccc(Br)s3)Nc3ncnn32)cc1OC (stereo not drawn),> 11 µM (inactive)
11,O=C(/C=C/c1ccco1)NC(=S)Nc1ccc(C(=O)O)cc1,> 11 µM (inactive)
12,CC1(OC(=O)c2cccs2)C(=O)C=C2C=C3CCCN3C=C2C1=O (stereo not drawn),> 11 µM (inactive)
13,O=C(CCN1C(=O)/C(=C\C=C\c2ccccc2)SC1=S)Nc1ccc(C(=O)O)cc1,> 11 µM (inactive)
14,O=C(c1ccc(Br)s1)N1CCN(c2ccccn2)CC1,> 11 µM (inactive)
15,NS(=O)(=O)c1ccc2c(c1)C1C=CCC1C(C1CC=CCC1)N2 (stereo not drawn),> 11 µM (inactive)
16,CCN(CC)c1ccc(/C=C2\C(=O)NC(=S)N(c3ccc(OC)cc3OC)C2=O)o1,> 11 µM (inactive)
17,CCc1ccc(/C=C2\SC(=S)N(CCCC(=O)Nc3ccccn3)C2=O)cc1,> 11 µM (inactive)
18,Cc1nnc(N2C(=O)C(O)=C(C(=O)c3ccco3)C2c2cccc3ccccc23)s1 (stereo not drawn),> 11 µM (inactive)
19,CCOC(=O)c1ccc(-n2c(CCC(=O)O)ccc2-c2ccccc2)cc1,> 11 µM (inactive)
20,C=CCn1c(=O)/c(=C\c2ccsc2)s/c1=C(/C#N)C(=O)NCCN1CCOCC1,> 11 µM (inactive)
21,C=CCn1c(O)c(C=Nc2ccc(N(CC)CC)cc2)c(=O)[nH]c1=O,> 11 µM (inactive)
